Reference: PubChem BioAssay (NCI)
Values joined by “and” are separate entries in the source; they are usually repeats but may differ in a detail not shown here. Equal entries are not always repeated.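 Assay format: 96-well plates, 48-hour exposure. At the GI50, growth is halved. Definition used: TGI = concentration required for complete inhibition of growth.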

Assays:
Experiment in all cases: NCI tumour cell line growth inhibition, 48 h
IGROV1 ovarian = tested on: IGROV1 ovarian
OVCAR-5 ovarian = tested on: OVCAR-5 ovarian
UO-31 renal = tested on: UO-31 renal
MDA-MB-435 = tested on: MDA-MB-435
ACHN renal = tested on: ACHN renal
OVCAR-3 ovarian = tested on: OVCAR-3 ovarian
SK-OV-3 ovarian = tested on: SK-OV-3 ovarian
HCC-2998 colon = tested on: HCC-2998 colon
HL-60(TB) leukemia = tested on: HL-60(TB) leukemia
786-0 renal = tested on: 786-0 renal

## Nc1nccc(-c2c(-c3ccc(F)cc3)ncn2CCCN2CCOCC2)n1
IGROV1 ovarian
  GI50: > 25 µM
  TGI: > 25 µM
OVCAR-5 ovarian
  GI50: > 25 µM
  TGI: > 25 µM
UO-31 renal
  GI50: 11.6 µM
  TGI: > 25 µM
MDA-MB-435
  GI50: > 25 µM
  TGI: > 25 µM
ACHN renal
  GI50: 19.4 µM
  TGI: > 25 µM
OVCAR-3 ovarian
  GI50: > 25 µM
  TGI: > 25 µM
SK-OV-3 ovarian
  GI50: > 25 µM
  TGI: > 25 µM
HCC-2998 colon
  GI50: > 25 µM
  TGI: > 25 µM
HL-60(TB) leukemia
  GI50: > 25 µM
  TGI: > 25 µM
786-0 renal
  GI50: > 25 µM
  TGI: > 25 µM

## O=C(O)C(Sc1ccc(Cl)cc1)Sc1ccc(Cl)cc1
IGROV1 ovarian
  TGI: > 100 µM
OVCAR-5 ovarian
  TGI: > 100 µM
UO-31 renal
  TGI: > 100 µM
MDA-MB-435
  TGI: > 100 µM
ACHN renal
  TGI: > 100 µM
OVCAR-3 ovarian
  TGI: 82.6 µM
SK-OV-3 ovarian
  TGI: > 100 µM
HCC-2998 colon
  TGI: 69.1 µM
HL-60(TB) leukemia
  TGI: > 100 µM
786-0 renal
  TGI: > 100 µM

## COc1ccc(C2CC(=O)c3c(OC)cc(OC)cc3O2)cc1 (centres undefined)
IGROV1 ovarian
  GI50: > 100 µM
  TGI: > 100 µM
OVCAR-5 ovarian
  GI50: > 100 µM
  TGI: > 100 µM
UO-31 renal
  GI50: > 100 µM
  TGI: > 100 µM
MDA-MB-435
  GI50: > 100 µM
  TGI: > 100 µM
ACHN renal
  GI50: > 100 µM
  TGI: > 100 µM
OVCAR-3 ovarian
  GI50: > 100 µM
  TGI: > 100 µM
SK-OV-3 ovarian
  GI50: > 100 µM
  TGI: > 100 µM
HCC-2998 colon
  GI50: > 100 µM
  TGI: > 100 µM
786-0 renal
  GI50: > 100 µM
  TGI: > 100 µM

## COc1cc2c3c(n(CCCBr)c(=O)c2cc1OC)-c1ccc(NC(C)=O)cc1C3=O
IGROV1 ovarian
  GI50: 10.8 µM
  TGI: > 100 µM
OVCAR-5 ovarian
  GI50: 52.6 µM
  TGI: > 100 µM
UO-31 renal
  GI50: 5.68 µM
  TGI: 65 µM
MDA-MB-435
  GI50: 13.9 µM
  TGI: 78.3 µM
ACHN renal
  GI50: 3.07 µM
  TGI: > 100 µM
OVCAR-3 ovarian
  GI50: 4.37 µM
  TGI: 24.9 µM
SK-OV-3 ovarian
  GI50: 2.28 µM
  TGI: 10.6 µM
HCC-2998 colon
  GI50: 11.9 µM
  TGI: 43.9 µM
HL-60(TB) leukemia
  GI50: 0.55 µM
  TGI: 7.78 µM
786-0 renal
  GI50: 5.4 µM
  TGI: 25.2 µM

## Cc1c2c(nn1-c1ccc(S(=O)(=O)/N=C3\SCC(=O)N3C(=O)c3ccccc3)cc1)-c1ccccc1CC2
IGROV1 ovarian
  GI50: > 100 µM
  TGI: > 100 µM
OVCAR-5 ovarian
  GI50: 49.9 µM
  TGI: > 100 µM
UO-31 renal
  GI50: 67.4 µM
  TGI: > 100 µM
MDA-MB-435
  GI50: 26.1 µM
  TGI: 60.8 µM
ACHN renal
  GI50: 24.6 µM
  TGI: 70.2 µM
OVCAR-3 ovarian
  GI50: 15.8 µM
  TGI: 39.1 µM
HCC-2998 colon
  GI50: 98.6 µM
  TGI: > 100 µM
HL-60(TB) leukemia
  GI50: 65.5 µM
  TGI: > 100 µM
786-0 renal
  GI50: 28.9 µM
  TGI: 77.9 µM

## CC[C@H](C)[C@H](NC(=O)[C@H]1CCCCN1C)C(=O)N(C)[C@H](CCc1nc(C(=O)N[C@@H](Cc2ccccc2)C[C@H](C)C(=O)OC)cs1)C(C)C
IGROV1 ovarian
  GI50: 0.316 µM
  TGI: > 25 µM
OVCAR-5 ovarian
  GI50: 1.12 µM
  TGI: > 25 µM
UO-31 renal
  GI50: 1.78 µM
  TGI: 13.7 µM
MDA-MB-435
  GI50: 0.0363 µM
  TGI: 0.185 µM
ACHN renal
  GI50: 1.75 µM
  TGI: > 25 µM
OVCAR-3 ovarian
  GI50: 0.0867 µM
SK-OV-3 ovarian
  GI50: 0.797 µM
  TGI: > 25 µM
HCC-2998 colon
  GI50: 0.694 µM
  TGI: > 13.4 µM
HL-60(TB) leukemia
  GI50: 0.0677 µM
  TGI: 0.242 µM
786-0 renal
  GI50: 0.432 µM
  TGI: > 11.6 µM

## COC(=O)[C@]12CCC(C)(C)C[C@H]1C1=CC[C@@H]3[C@@]4(C)C/C(=C/c5cccnc5)C(=O)C(C)(C)[C@@H]4CC[C@@]3(C)[C@]1(C)CC2
IGROV1 ovarian
  GI50: 5.2 µM
  TGI: 31.5 µM
OVCAR-5 ovarian
  GI50: 14.1 µM
  TGI: 38.2 µM
UO-31 renal
  GI50: 3.21 µM
  TGI: 24.4 µM
MDA-MB-435
  GI50: 5.05 µM
  TGI: 20 µM
ACHN renal
  GI50: 8.05 µM
  TGI: 24.5 µM
OVCAR-3 ovarian
  GI50: 4.16 µM
  TGI: 27.9 µM
SK-OV-3 ovarian
  GI50: 27.5 µM
  TGI: > 100 µM
HCC-2998 colon
  GI50: 5.56 µM
  TGI: 19.5 µM
HL-60(TB) leukemia
  GI50: 2.06 µM
  TGI: 5.2 µM
786-0 renal
  GI50: 3.58 µM
  TGI: 17.4 µM

## CC(C)(C)C1=CC(=CC=C2C=CN(CCCCCCCCCCCO)C=C2)C=C(C(C)(C)C)C1=O
IGROV1 ovarian
  TGI: 2.26 µM
OVCAR-5 ovarian
  TGI: 6.52 µM
UO-31 renal
  TGI: 3.67 µM
MDA-MB-435
  TGI: 3.4 µM
ACHN renal
  TGI: > 25.2 µM
OVCAR-3 ovarian
  TGI: 2.87 µM
SK-OV-3 ovarian
  TGI: 5.81 µM
HCC-2998 colon
  TGI: 2.27 µM
HL-60(TB) leukemia
  TGI: 3.71 µM
786-0 renal
  TGI: 3.94 µM

## Cn1cc(-c2csc(-c3cccc(F)c3)n2)c2cccnc21
IGROV1 ovarian
  GI50: 21.2 µM
  TGI: 47.5 µM
OVCAR-5 ovarian
  GI50: 14.8 µM
  TGI: 31.5 µM
UO-31 renal
  GI50: 15.9 µM
  TGI: 50.6 µM
MDA-MB-435
  GI50: 14.4 µM
  TGI: 33.1 µM
ACHN renal
  GI50: 18.2 µM
  TGI: 50.7 µM
OVCAR-3 ovarian
  GI50: 19 µM
  TGI: 33.9 µM
SK-OV-3 ovarian
  GI50: 24.9 µM
  TGI: 62.2 µM
HCC-2998 colon
  GI50: 18.9 µM
  TGI: 33.6 µM
HL-60(TB) leukemia
  GI50: 14.4 µM
  TGI: 49.9 µM
786-0 renal
  GI50: 16.1 µM
  TGI: 30.4 µM

## Cc1cc(C)cc(Nc2cc(C)nc3nc(C(F)(F)F)nn23)c1
IGROV1 ovarian
  GI50: > 100 µM
  TGI: > 100 µM
OVCAR-5 ovarian
  GI50: > 100 µM
  TGI: > 100 µM
UO-31 renal
  GI50: > 100 µM
  TGI: > 100 µM
MDA-MB-435
  GI50: > 100 µM
  TGI: > 100 µM
ACHN renal
  GI50: 58.7 µM
  TGI: > 100 µM
OVCAR-3 ovarian
  GI50: > 100 µM
  TGI: > 100 µM
SK-OV-3 ovarian
  GI50: 81.5 µM
  TGI: > 100 µM
HCC-2998 colon
  GI50: > 100 µM
  TGI: > 100 µM
HL-60(TB) leukemia
  GI50: > 100 µM
  TGI: > 100 µM
786-0 renal
  GI50: 37.6 µM
  TGI: > 100 µM

## N#C/C(C(=S)Nc1ccccc1)=C1/NN=C2c3ccccc3C(=O)NN21
IGROV1 ovarian
  GI50: 35.6 µM
  TGI: > 100 µM
OVCAR-5 ovarian
  GI50: 56.1 µM
  TGI: > 100 µM
UO-31 renal
  GI50: 33.4 µM
  TGI: > 100 µM
MDA-MB-435
  GI50: 7.8 µM
  TGI: 24.3 µM
ACHN renal
  GI50: 35.5 µM
  TGI: > 100 µM
OVCAR-3 ovarian
  GI50: 21.2 µM
  TGI: 52.7 µM
SK-OV-3 ovarian
  GI50: 19.6 µM
  TGI: 59.8 µM
HCC-2998 colon
  GI50: 24.1 µM
  TGI: > 100 µM
HL-60(TB) leukemia
  GI50: 22 µM
  TGI: 61.7 µM
786-0 renal
  GI50: 38 µM
  TGI: > 100 µM

## Cc1cc(C2CCCCC2)n(O)c(=O)c1
IGROV1 ovarian
  GI50: 0.989 µM
  TGI: > 100 µM
OVCAR-5 ovarian
  GI50: 6.13 µM
  TGI: > 100 µM
UO-31 renal
  GI50: 0.552 µM
  TGI: > 100 µM
MDA-MB-435
  GI50: 2.27 µM
  TGI: > 100 µM
ACHN renal
  GI50: 1.06 µM
  TGI: > 100 µM
OVCAR-3 ovarian
  GI50: 0.521 µM
  TGI: 54 µM
SK-OV-3 ovarian
  GI50: 1.91 µM
  TGI: > 100 µM
HCC-2998 colon
  GI50: 2.94 µM
  TGI: > 100 µM and 35.5 µM
HL-60(TB) leukemia
  TGI: 10.1 µM
786-0 renal
  GI50: 2.26 µM
  TGI: > 100 µM

## Cc1[nH]c(N=Nc2ccccc2)nc1N=Nc1ccccc1
IGROV1 ovarian
  GI50: 1.6 µM
  TGI: 5.15 µM
OVCAR-5 ovarian
  GI50: 6.62 µM
  TGI: > 82.2 µM
UO-31 renal
  GI50: 1.34 µM
  TGI: 13 µM
MDA-MB-435
  GI50: 3.35 µM
  TGI: 17.9 µM
ACHN renal
  GI50: 2.15 µM
  TGI: 7.89 µM
OVCAR-3 ovarian
  GI50: 2.6 µM
  TGI: 16.1 µM
SK-OV-3 ovarian
  GI50: 3.14 µM
  TGI: > 32.4 µM
HCC-2998 colon
  GI50: 4.2 µM
  TGI: 29.6 µM
HL-60(TB) leukemia
  GI50: 2.56 µM
  TGI: > 23.6 µM
786-0 renal
  GI50: 2.75 µM
  TGI: 10.2 µM
